Results reported in patent US20230128815A1, “ADJUVANT COMPOUNDS, SALT FORMS, AND FORMULATIONS” (ADJUVANCE TECHNOLOGIES, INC., priority 2020, published 2023).
Counter-ions that a name gives are not always drawn.

Experiments:
Solubility in water = assay type: physicochemical
[1] = Dynamic vapor sorption (DVS) / humidity-dependent form stability; assay type: physicochemical
Protocol: Automated vapor sorption (VS) data were collected on a Surface Measurement System DVS Intrinsic instrument. Samples were not dried prior to analysis. Sorption and desorption data were collected over a range from 5% to 95% RH at 10% RH increments under a nitrogen purge. The equilibrium criterion used for analysis was less than 0.0100% weight change in 5 minutes with a maximum equilibration time of 3 hours. Data were not corrected for the initial moisture content of the samples.

[2] = TQL-1055 choline salt and free acid ethanol solubility; assay type: physicochemical; conditions: 100% ethanol, 37 °C, organic solvent or mixture, thermodynamic from solid, solubility in 100% ethanol, vortex mixed, sonicated at 37° C. for five minutes
Protocol: An experiment was conducted to determine the solubility of TQL-1055 choline salt and TQL-1055 free acid in ethanol. Several samples were prepared, each containing either TQL-1055 choline salt or TQL-1055 free acid dissolved in a 100% ethanol solution at a concentration of 4 mg/ml. All samples were mixed using a vortex mixer and subsequently sonicated at 37° C. for five minutes. Neither the TQL-1055 choline salt nor the TQL-1055 free acid were fully dissolved at 4 mg/ml. Samples were then diluted to 3.5 mg/ml, 3 mg/ml, 2.5 mg/ml, or 2 mg/ml and re-sonicated. As depicted in FIGS. 16-18, TQL-1055 choline salt was completely dissolved at a concentration of 3 mg/ml, whereas TQL-1055 free acid was completely dissolved at a concentration of 2 mg/ml. Accordingly, TQL-1055 choline salt is soluble in 100% ethanol up to concentrations of approximately 3 mg/ml, whereas TQL-1055 free acid is soluble in 100% ethanol up to concentrations of approximately 2 mg/ml.

[3] = compared to QS-21; cited from earlier work
[4] = from 5 to 65% relative humidity

solubility (Solubility in water) [µg/mL] | DVS additional weight gain ([1]; above 65% up to 95% relative humidity) [%] | DVS weight gain [1, 4] [%] | water gain equivalent to DVS weight gain [1, 4] [mol/mol] | DVS weight loss on desorption ([1]; from 95 to 5% relative humidity) [%] | relative humidity above which the form converts to higher hydrate Choline Material B ([1]; relative humidity) | solubility at 5 min [2] [µg/mL] | solubility in water at physiological pH (Solubility in water; physiological pH) | Compound | efficacy as compared to the natural product [3] | toxicity as compared to the natural product [3]
> 6000 | 14 | 5 | ~3.5 | 19 | above 65% |  |  | CC1O[C@@H](OC2C(O)[C@@H](NC(=O)CCCCCCCCCCC(=O)O)C(CO)O[C@H]2OC(=O)[C@]23CCC(C)(C)CC2C2=CCC4C5(C)CC[C@H](O)C(C)(C=O)C5CCC4(C)C2(C)CC3O)C(O)C(O)[C@H]1O[C@@H]1OC[C@@H](O)C(O)C1O (some centres unmarked) [Form A] |  | 
 |  |  |  |  |  | ~3000 |  | CC1O[C@@H](OC2C(O)[C@@H](NC(=O)CCCCCCCCCCC(=O)O)C(CO)O[C@H]2OC(=O)[C@]23CCC(C)(C)CC2C2=CCC4C5(C)CC[C@H](O)C(C)(C=O)C5CCC4(C)C2(C)CC3O)C(O)C(O)[C@H]1O[C@@H]1OC[C@@H](O)C(O)C1O (some centres unmarked) [TQL-1055 choline salt] |  | 
 |  |  |  |  |  | ~2000 | poor solubility | CC1O[C@@H](OC2C(O)[C@@H](NC(=O)CCCCCCCCCCC(=O)O)C(CO)O[C@H]2OC(=O)[C@]23CCC(C)(C)CC2C2=CCC4C5(C)CC[C@H](O)[C@](C)(C=O)[C@@H]5CC[C@]4(C)[C@]2(C)CC3O)C(O)C(O)[C@H]1O[C@@H]1OC[C@@H](O)C(O)C1O (some centres unmarked) [Compound I-4] | improved efficacy | reduced toxicity
